According to patent US20230322721A1 (OSLO UNIVERSITETSSYKEHUS HF, priority 2020, published 2023):
Read-outs that look alike come from different tables or passages of the source.

Tests used:
[1] = Metabolic stability in mouse liver microsomes (MLM); format: in vitro ADME; settings: for microsomal CLint at 1 μM / half-life at 1 μM: pH 7.4, 1 μM compound; for half-life at 1 μM: read-out: MLM t1/2 average
Experimental: (§1) Metabolic stability was investigated in mouse liver microsomes (MLM) and in human liver microsomes (HLM): […] Incubations were performed at 37° C. Control incubations with reference substances were included for each experiment. […] After the last time point, the quench plates were mixed thoroughly and centrifuged for 15 minutes at 3700 rpm and 10° C. (Eppendorf 5804R). The supernatant was transferred to new 96 well plates and subjected to LCMS analysis. The disappearance of the parent compound was determined.

[2] = Metabolic stability in human liver microsomes (HLM); format: in vitro ADME; settings: for microsomal CLint at 1 μM / half-life at 1 μM: pH 7.4, 1 μM compound; for half-life at 1 μM: read-out: HLM t1/2 average
Experimental: as §1

[3] = target: TNKS2 (Homo sapiens (Human), UniProt Q9H2K2); assay: Biochemical IC50 TNKS2; settings: read-out: Biochemical IC50 TNKS2
Source text: (§2) XLfit (idbs) was used to determine the IC50-values in inhibition experiments. The following formula was chosen to fit the data points (Langmuir Binding Isotherm): fit=((A+(B*x))+(((C−B)*(1−exp((−1*D)*x)))/D)), res=(y−fit).

[4] = tested on: HEK293; assay: Cellular IC50 HEK293; format: cell-based
Source text: as §2

[5] = 0.5 mg/ml microsomal protein, 37° C.
[6] = Homo sapiens, HEK293, read-out: Cellular IC50 HEK293
[7] = 1 μM compound, 0.5 mg/ml microsomal protein, 37° C.

Chain of TNKS2 (Q9H2K2 whole entry): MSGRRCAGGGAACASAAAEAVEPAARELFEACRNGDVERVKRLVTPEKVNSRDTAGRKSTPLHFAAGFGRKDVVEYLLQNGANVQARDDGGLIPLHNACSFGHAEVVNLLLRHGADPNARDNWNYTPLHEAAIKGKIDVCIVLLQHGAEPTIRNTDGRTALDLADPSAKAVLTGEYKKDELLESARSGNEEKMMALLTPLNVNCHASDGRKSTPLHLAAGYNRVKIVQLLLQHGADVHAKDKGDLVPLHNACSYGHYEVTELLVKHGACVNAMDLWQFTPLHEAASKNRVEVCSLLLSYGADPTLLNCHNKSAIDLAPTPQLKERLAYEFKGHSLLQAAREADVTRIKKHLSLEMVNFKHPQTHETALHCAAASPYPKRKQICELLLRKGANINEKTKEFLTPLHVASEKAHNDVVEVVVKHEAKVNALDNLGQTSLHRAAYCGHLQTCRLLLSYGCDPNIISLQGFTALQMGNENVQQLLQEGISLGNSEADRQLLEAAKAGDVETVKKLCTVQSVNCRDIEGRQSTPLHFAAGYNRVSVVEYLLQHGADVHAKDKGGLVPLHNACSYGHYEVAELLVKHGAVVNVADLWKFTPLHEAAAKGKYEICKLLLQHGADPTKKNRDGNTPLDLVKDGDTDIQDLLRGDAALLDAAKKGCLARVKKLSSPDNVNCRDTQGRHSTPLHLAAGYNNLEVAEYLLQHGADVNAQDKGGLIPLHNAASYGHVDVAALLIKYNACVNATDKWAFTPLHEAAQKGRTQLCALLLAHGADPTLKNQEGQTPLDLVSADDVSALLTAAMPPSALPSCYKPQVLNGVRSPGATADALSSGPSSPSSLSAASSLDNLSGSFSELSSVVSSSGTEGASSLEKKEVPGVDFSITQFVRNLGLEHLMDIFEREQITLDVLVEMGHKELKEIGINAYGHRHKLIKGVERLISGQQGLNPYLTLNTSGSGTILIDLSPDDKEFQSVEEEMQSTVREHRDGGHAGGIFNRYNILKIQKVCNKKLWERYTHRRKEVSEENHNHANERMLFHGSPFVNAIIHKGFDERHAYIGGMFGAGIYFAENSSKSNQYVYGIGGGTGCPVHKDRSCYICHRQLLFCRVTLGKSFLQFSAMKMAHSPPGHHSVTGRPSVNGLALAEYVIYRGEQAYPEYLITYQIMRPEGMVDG

SMILES | microsomal CLint at 1 μM [1, 5] [µL/min/mg] | half-life at 1 μM [1, 5] [h] | microsomal CLint at 1 μM [2, 5] [µL/min/mg] | half-life at 1 μM [2, 5] [h] | IC50 [3] [nM] | IC50 [4, 6] [nM] | MLM Clint average [1, 7] [μl/min/mg protein] | MLM t1/2 average [1, 7] [h] | HLM Clint average [2, 7] [μl/min/mg protein] | HLM t1/2 average [2, 7] [h] | IC50 ([4]; HEK293, read-out: Cellular IC50 HEK293) [nM] | clearance in MLM (in words) [1] | clearance in HLM (in words) [2]
CCOc1ccc(-c2nnc([C@H]3C[C@H](NC(=O)c4cccc5c4ncc[n+]5[O-])C3)n2-c2ccccc2F)nc1 [Example 4, 5-(((1R,3r)-3-(5-(5-ethoxypyridin-2-yl)-4-(2-fluorophenyl)-4H-1,2,4-triazol-3-yl)cyclobutyl)carbamoyl)quinoxaline 1-oxide] | 19 | 1.18 | 5 | > 1.5 | 1.6 | 2.5 |  |  |  |  |  |  | 
CCOc1ccc(-c2nnc([C@H]3C[C@H](NC(=O)c4cccc5nccnc45)C3)n2-c2ccccc2F)[n+]([O-])c1 [Example 5, 5-ethoxy-2-(4-(2-fluorophenyl)-5-((1r,3R)-3-(quinoxaline-5-carboxamido)cyclobutyl)-4H-1,2,4-triazol-3-yl)pyridine 1-oxide] |  |  |  |  | 1.3 |  | 15 | >1.5 | 8 | >1.5 | 0.75 |  | 
CCOc1ccc(-c2nnc([C@H]3C[C@H](NC(=O)c4cccc5nccnc45)C3)n2-c2ccccc2F)nc1 [Example 154 of WO 2019/243822, reference compound] | 81 | 0.283 | 40 | 0.583 | 1.8 | 0.53 |  |  |  |  |  | high clearance | moderate clearance
